Target: acetylcholinesterase (AChE) (Electrophorus electricus, UniProt O42275)
Assay: modified Ellman's colorimetric assay, commercial AChE (Sigma C3389)
Type: biochemical

Sequence of acetylcholinesterase (AChE) (O42275 24-633): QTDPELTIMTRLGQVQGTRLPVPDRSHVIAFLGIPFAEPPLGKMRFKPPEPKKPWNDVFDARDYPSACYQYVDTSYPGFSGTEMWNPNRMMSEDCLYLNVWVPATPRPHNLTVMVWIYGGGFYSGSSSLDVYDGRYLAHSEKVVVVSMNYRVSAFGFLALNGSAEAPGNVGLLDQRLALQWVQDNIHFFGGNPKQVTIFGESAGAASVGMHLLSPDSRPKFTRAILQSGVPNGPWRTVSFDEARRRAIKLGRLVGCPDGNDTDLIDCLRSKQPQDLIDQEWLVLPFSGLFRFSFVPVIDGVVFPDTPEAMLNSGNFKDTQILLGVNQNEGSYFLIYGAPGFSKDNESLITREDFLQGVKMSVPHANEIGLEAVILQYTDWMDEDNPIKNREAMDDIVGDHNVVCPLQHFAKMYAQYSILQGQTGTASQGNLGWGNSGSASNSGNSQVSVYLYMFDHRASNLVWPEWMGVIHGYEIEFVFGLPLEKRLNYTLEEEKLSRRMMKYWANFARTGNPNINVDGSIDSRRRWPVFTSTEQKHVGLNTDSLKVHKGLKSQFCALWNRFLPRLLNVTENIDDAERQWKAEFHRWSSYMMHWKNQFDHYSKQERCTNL

## C[C@H]1COC(c2cc3c(cn2)OC(C)(C)[C@H](O)C3)=CC1=O [compound 1, Amphichoterpenoid D]
  IC50: 12.5 µM

## C[C@@H]1COC(c2cc3c(cn2)OC(C)(C)[C@H](O)C3)=CC1=O [compound 2, Amphichoterpenoid E]
  IC50: 11.6 µM
